Measurements taken from patent US20140163026A1, “8-ETHYL-6-(ARYL)PYRIDO[2,3-D]PYRIMIDIN-7(8H)-ONES FOR THE TREATMENT OF NERVOUS SYSTEM DISORDERS AND CANCER” (Afraxis Holdings, Inc., priority 2011, published 2014).

Columns and labels:
Assay type in all cases: biochemical
PAK1 = PAK1 (Homo sapiens, UniProt Q13153); test: In vitro PAK inhibition assay (SelectScreen, Ser/Thr 19 peptide)
Procedure, shortened: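 Kinase reaction ran in 50 mM HEPES pH 7.5, 0.01% BRIJ-35, 10 mM MgCl2, 1 mM EGTA with Ser/Thr 19 peptide for 60 min at room temperature, followed by 60 min protease development. Fluorescence gave percent phosphorylation. Compounds were tested as 10-point, 3-fold titrations in 1% DMSO final.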

PAK2 (PAK65) = PAK2 (PAK65) (Homo sapiens, UniProt Q13177); test: In vitro PAK inhibition assay (SelectScreen, Ser/Thr 20 peptide)
PAK2 (PAK65), sequence (Q13177 whole entry): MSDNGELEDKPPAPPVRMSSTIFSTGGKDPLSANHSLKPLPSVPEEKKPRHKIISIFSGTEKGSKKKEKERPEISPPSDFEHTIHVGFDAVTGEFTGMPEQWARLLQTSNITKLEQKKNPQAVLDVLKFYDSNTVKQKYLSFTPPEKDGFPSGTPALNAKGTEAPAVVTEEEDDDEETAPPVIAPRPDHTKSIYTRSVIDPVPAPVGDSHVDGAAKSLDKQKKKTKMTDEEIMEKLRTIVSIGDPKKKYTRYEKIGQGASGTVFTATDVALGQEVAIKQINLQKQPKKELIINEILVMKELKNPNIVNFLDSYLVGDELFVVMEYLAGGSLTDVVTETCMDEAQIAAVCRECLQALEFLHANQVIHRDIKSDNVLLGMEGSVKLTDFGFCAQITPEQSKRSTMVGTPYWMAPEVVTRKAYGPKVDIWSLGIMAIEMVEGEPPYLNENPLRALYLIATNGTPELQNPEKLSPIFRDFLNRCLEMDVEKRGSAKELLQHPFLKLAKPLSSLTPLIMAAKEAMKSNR
Procedure, shortened: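 FRET-based peptide cleavage assay: 0.29-6 ng PAK2 and 2 μM Ser/Thr 20 peptide in 50 mM HEPES pH 7.5, 10 mM MgCl2, 1 mM EGTA, 0.01% BRIJ-35, 1% DMSO final. Kinase reaction 60 min at room temperature, then 60 min development; 10-point 3-fold titrations, percent phosphorylation from fluorescence.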

PAK3 = PAK3 (Homo sapiens, UniProt O75914); test: as above
PAK3, sequence (O75914 whole entry): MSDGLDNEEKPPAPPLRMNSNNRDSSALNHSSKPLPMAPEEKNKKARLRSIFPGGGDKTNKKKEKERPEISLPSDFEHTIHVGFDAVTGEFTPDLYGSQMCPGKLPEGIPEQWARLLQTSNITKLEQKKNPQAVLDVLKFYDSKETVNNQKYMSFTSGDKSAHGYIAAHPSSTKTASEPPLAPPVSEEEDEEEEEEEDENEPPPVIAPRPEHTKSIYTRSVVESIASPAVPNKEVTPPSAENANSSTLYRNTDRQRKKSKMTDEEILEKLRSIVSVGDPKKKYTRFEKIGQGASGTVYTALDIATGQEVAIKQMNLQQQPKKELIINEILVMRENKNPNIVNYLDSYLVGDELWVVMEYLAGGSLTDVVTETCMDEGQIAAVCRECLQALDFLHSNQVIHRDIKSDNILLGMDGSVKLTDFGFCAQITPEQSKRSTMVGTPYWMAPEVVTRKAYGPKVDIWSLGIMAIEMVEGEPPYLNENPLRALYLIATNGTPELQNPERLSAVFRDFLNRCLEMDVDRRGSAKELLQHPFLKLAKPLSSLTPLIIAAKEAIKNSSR
Procedure, shortened: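 PAK3 phosphorylation of Ser/Thr 20 peptide in 50 mM HEPES pH 7.5, 0.01% BRIJ-35, 10 mM MgCl2, 1 mM EGTA, 1% DMSO final; 60 min at room temperature, then 60 min development reaction with fluorescence read-out. 10-point 3-fold titrations; percent phosphorylation from 0% and 100% phosphopeptide controls.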

PAK4 = PAK4 (Homo sapiens, UniProt O96013); test: as above
PAK4, sequence (O96013 whole entry): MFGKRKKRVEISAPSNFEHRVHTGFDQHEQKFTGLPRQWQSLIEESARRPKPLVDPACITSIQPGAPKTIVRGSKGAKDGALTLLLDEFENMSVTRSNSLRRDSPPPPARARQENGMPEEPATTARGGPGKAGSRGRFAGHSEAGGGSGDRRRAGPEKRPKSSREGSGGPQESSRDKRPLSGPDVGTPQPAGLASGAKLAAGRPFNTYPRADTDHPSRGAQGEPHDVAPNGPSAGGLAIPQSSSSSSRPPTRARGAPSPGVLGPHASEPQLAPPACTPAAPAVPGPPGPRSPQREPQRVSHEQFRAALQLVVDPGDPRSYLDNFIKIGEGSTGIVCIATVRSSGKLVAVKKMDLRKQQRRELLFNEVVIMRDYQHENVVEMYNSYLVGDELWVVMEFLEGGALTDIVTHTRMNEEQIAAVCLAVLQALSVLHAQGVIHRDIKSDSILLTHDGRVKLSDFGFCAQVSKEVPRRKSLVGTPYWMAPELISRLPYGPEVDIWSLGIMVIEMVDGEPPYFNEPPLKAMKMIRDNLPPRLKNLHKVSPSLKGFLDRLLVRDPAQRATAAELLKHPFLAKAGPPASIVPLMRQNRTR
Procedure, shortened: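 FRET-based Ser/Thr 20 peptide phosphorylation: 0.1-0.75 ng PAK4, 2 μM peptide in 50 mM HEPES pH 7.5, 10 mM MgCl2, 1 mM EGTA, 0.01% BRIJ-35, 1% DMSO; 60 min at room temperature, then 60 min protease development. 10-point 3-fold titrations; IC50 from sigmoidal fit.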

PAK1, sequence (Q13153 whole entry): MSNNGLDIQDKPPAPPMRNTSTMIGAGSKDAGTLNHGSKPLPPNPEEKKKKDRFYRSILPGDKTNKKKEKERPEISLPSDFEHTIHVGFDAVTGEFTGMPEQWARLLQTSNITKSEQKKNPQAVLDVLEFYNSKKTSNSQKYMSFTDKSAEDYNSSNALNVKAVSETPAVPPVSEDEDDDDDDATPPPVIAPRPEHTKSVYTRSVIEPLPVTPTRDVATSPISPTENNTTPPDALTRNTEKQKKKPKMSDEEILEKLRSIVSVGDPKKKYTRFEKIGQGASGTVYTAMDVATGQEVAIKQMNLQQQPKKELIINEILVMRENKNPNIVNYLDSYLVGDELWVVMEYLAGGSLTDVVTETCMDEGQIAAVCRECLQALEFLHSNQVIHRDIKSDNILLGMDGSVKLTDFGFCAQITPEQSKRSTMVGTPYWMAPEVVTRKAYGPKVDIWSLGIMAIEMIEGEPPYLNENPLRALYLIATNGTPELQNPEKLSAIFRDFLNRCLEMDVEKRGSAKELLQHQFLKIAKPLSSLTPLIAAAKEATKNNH

SMILES | IC50 (PAK1) [nM] | IC50 (PAK2 (PAK65)) [nM] | IC50 (PAK3) [nM] | IC50 (PAK4) [nM]
CCn1c(=O)c(-c2ccc(-c3ccoc3)cc2Cl)cc2cnc(Nc3ccc(N4CCN(C)CC4)cc3)nc21 | < 50 | < 50 | < 50 | ≥ 5000
CCn1c(=O)c(-c2ccc(-c3ccco3)cc2Cl)cc2cnc(Nc3ccc(N4CCN(C)CC4)cc3)nc21 | < 50 | < 50 | < 50 | ≥ 5000
CCn1c(=O)c(-c2ccc(-c3ccsc3)cc2Cl)cc2cnc(Nc3ccc(N4CCN(C)CC4)cc3)nc21 | < 50 | < 50 | < 50 | ≥ 5000
CCn1c(=O)c(-c2ccc(-c3ccc(C)s3)cc2Cl)cc2cnc(Nc3ccc(N4CCN(C)CC4)cc3)nc21 | < 50 | < 50 | 50 to 500 | ≥ 5000
CCn1c(=O)c(-c2ccc(-c3cnn(C)c3)cc2Cl)cc2cnc(Nc3ccc(N4CCN(C)CC4)cc3)nc21 | < 50 | < 50 | 50 to 500 | ≥ 5000
CCn1c(=O)c(-c2ccc(-c3cccnc3F)cc2Cl)cc2cnc(Nc3ccc(C4CCNCC4)c(F)c3)nc21 | < 50 | < 50 | < 50 | 500 to 5000
CCn1c(=O)c(-c2ccc(-c3ccc(C)nc3F)cc2Cl)cc2cnc(Nc3ccc(C4CCN(C)CC4)cc3)nc21 | < 50 | < 50 | 50 to 500 | 500 to 5000
CCn1c(=O)c(-c2ccc(-c3ccc(C)nc3)cc2Cl)cc2cnc(Nc3ccc(C4CCN(C)CC4)c(F)c3)nc21 | < 50 | < 50 | 50 to 500 | ≥ 5000
CCn1c(=O)c(-c2ccc(-c3cccnc3F)cc2Cl)cc2cnc(Nc3ccc(C4CCN(C)CC4)c(F)c3)nc21 | < 50 | < 50 | < 50 | 500 to 5000
CCn1c(=O)c(-c2ccc(-c3cccnc3C)cc2Cl)cc2cnc(Nc3ccc(C4CCN(C)CC4)c(F)c3)nc21 | < 50 | 50 to 500 | 50 to 500 | ≥ 5000
CCN1CCC(c2ccc(Nc3ncc4cc(-c5ccc(-c6ccc(C)nc6)cc5Cl)c(=O)n(CC)c4n3)cc2F)CC1 | < 50 | < 50 | 50 to 500 | 500 to 5000
CCN1CCC(c2ccc(Nc3ncc4cc(-c5ccc(-c6cccnc6C)cc5Cl)c(=O)n(CC)c4n3)cc2F)CC1 | < 50 | 50 to 500 | 50 to 500 | ≥ 5000
CCn1c(=O)c(-c2ccc(-c3ccc(F)nc3C)cc2Cl)cc2cnc(Nc3ccc(C4CCN(C)CC4)cc3)nc21 | < 50 | 50 to 500 | 50 to 500 | ≥ 5000
CCN1CCC(c2ccc(Nc3ncc4cc(-c5ccc(-c6cccnc6F)cc5Cl)c(=O)n(CC)c4n3)cc2F)CC1 | < 50 | < 50 | < 50 | 500 to 5000
CCN1CCC(c2ccc(Nc3ncc4cc(-c5ccc(-c6noc(C)n6)cc5Cl)c(=O)n(CC)c4n3)cc2F)CC1 | < 50 | < 50 | < 50 | ≥ 5000
CCN1CCC(c2ccc(Nc3ncc4cc(-c5ccc(-c6ccc(C)nc6F)cc5Cl)c(=O)n(CC)c4n3)cc2F)CC1 | 50 to 500 | 50 to 500 | 50 to 500 | ≥ 5000
CCn1c(=O)c(-c2ccc(-c3noc(C)n3)cc2Cl)cc2cnc(Nc3ccc(C4CCN(C(C)C)CC4)cc3)nc21 | < 50 | < 50 | < 50 | 500 to 5000
CCn1c(=O)c(-c2ccc(-c3ccnc(C)c3)cc2Cl)cc2cnc(Nc3ccc(C4CCN(C)CC4)c(F)c3)nc21 | < 50 | < 50 | 50 to 500 | ≥ 5000
Cc1ncccc1-c1ccc(-c2cc3cnc(Nc4ccc(C5CCN(C)CC5)cc4)nc3n(C)c2=O)c(Cl)c1 | < 50 | < 50 | 50 to 500 | ≥ 5000
CCN1CCC(c2ccc(Nc3ncc4cc(-c5ccc(-c6ccnc(C)c6)cc5Cl)c(=O)n(CC)c4n3)cc2F)CC1 | < 50 | < 50 | < 50 | 500 to 5000
CCn1c(=O)c(-c2ccc(-c3noc(C)n3)cc2Cl)cc2cnc(Nc3ccc(C4CCN(C)CC4)c(F)c3)nc21 | < 50 | < 50 | < 50 | 500 to 5000
CCn1c(=O)c(-c2ccc(-c3ccc(C)nc3F)cc2Cl)cc2cnc(Nc3ccc(C4CCN(C)CC4)c(F)c3)nc21 | 50 to 500 | 50 to 500 | 50 to 500 | 500 to 5000

SMILES | IC50 (PAK1) [nM] | IC50 (PAK2 (PAK65)) [nM] | IC50 (PAK3) [nM] | IC50 (PAK4) [nM]
CCn1c(=O)c(-c2ccc(-c3ccc(F)nc3C)cc2Cl)cc2cnc(Nc3ccc(C4CCN(C)CC4)c(F)c3)nc21 | 50 to 500 | 50 to 500 | 50 to 500 | ≥ 5000
CCn1c(=O)c(-c2ccc(-c3ccnc(C(=O)NC)c3)cc2Cl)cc2cnc(Nc3ccc(C4CCN5CCCC5C4)cc3)nc21 (centres unmarked) | 50 to 500 | 50 to 500 | 50 to 500 | ≥ 5000
CCn1c(=O)c(-c2ccc(-c3cnc(C)s3)cc2Cl)cc2cnc(Nc3ccc(CCN(C)C)cc3)nc21 | < 50 | < 50 | < 50 | 500 to 5000
Cc1ncccc1-c1ccc(-c2cc3cnc(Nc4ccc(CCN(C)C)cc4)nc3n(C)c2=O)c(Cl)c1 | < 50 | 50 to 500 | 50 to 500 | ≥ 5000
CCN1CCC(c2ccc(Nc3ncc4cc(-c5ccc(-c6noc(C)n6)cc5Cl)c(=O)n(C)c4n3)cc2)CC1 | < 50 | < 50 | < 50 | ≥ 5000
Cc1nc(-c2ccc(-c3cc4cnc(Nc5ccc(CCN(C)C)cc5)nc4n(C)c3=O)c(Cl)c2)no1 | < 50 | < 50 | < 50 | ≥ 5000
Cc1ncc(-c2ccc(-c3cc4cnc(Nc5ccc(C6CCN(C)CC6)cc5)nc4n(C)c3=O)c(Cl)c2)s1 | < 50 | < 50 | 50 to 500 | ≥ 5000
Cc1ncc(-c2ccc(-c3cc4cnc(Nc5ccc(CCN(C)C)cc5)nc4n(C)c3=O)c(Cl)c2)s1 | < 50 | < 50 | < 50 | ≥ 5000
CCn1c(=O)c(-c2ccc(-c3ccc(C)nc3)cc2Cl)cc2cnc(Nc3ccc(C4CCN5CCCC5C4)cc3)nc21 (centres unmarked) | < 50 | < 50 | 50 to 500 | 500 to 5000
CCn1c(=O)c(-c2ccc(-c3ccnc(C)c3)cc2Cl)cc2cnc(Nc3ccc(C4CCN5CCCC5C4)cc3)nc21 (centres unmarked) | < 50 | 50 to 500 | 50 to 500 | ≥ 5000
CCn1c(=O)c(-c2ccc(-c3cnc(C)s3)cc2Cl)cc2cnc(Nc3ccc(C4CCN5CCCC5C4)cc3)nc21 (centres unmarked) | < 50 | < 50 | < 50 | 500 to 5000
CCN1CCC(c2ccc(Nc3ncc4cc(-c5ccc(-c6cccnc6C)cc5Cl)c(=O)n(C)c4n3)cc2)CC1 | < 50 | 50 to 500 | 50 to 500 | ≥ 5000
CNC(=O)c1cc(-c2ccc(-c3cc4cnc(Nc5ccc(C6CCN(C)CC6)cc5)nc4n(C)c3=O)c(Cl)c2)ccn1 | 50 to 500 | 50 to 500 | 500 to 5000 | ≥ 5000
CNC(=O)c1cc(-c2ccc(-c3cc4cnc(Nc5ccc(CCN(C)C)cc5)nc4n(C)c3=O)c(Cl)c2)ccn1 | 50 to 500 | 50 to 500 | 500 to 5000 | ≥ 5000
CNC(=O)c1cc(-c2ccc(-c3cc4cnc(Nc5ccc(C6CCNCC6)cc5)nc4n(C)c3=O)c(Cl)c2)ccn1 | 50 to 500 | 50 to 500 | 50 to 500 | 500 to 5000
CN1CCC(c2ccc(Nc3ncc4cc(-c5ccc(-c6cccnc6F)cc5Cl)c(=O)n(C)c4n3)cc2)CC1 | < 50 | < 50 | < 50 | ≥ 5000
CN(C)CCc1ccc(Nc2ncc3cc(-c4ccc(-c5cccnc5F)cc4Cl)c(=O)n(C)c3n2)cc1 | < 50 | < 50 | < 50 | 500 to 5000
CCn1c(=O)c(-c2ccc(-c3ccc(F)nc3C)cc2Cl)cc2cnc(Nc3ccc(C4CCNCC4)c(F)c3)nc21 | 50 to 500 | 50 to 500 | 50 to 500 | ≥ 5000
CCn1c(=O)c(-c2ccc(-c3noc(C)n3)cc2Cl)cc2cnc(Nc3ccc(CCN4CCCC4)cc3)nc21 | < 50 | < 50 | < 50 | 500 to 5000
CCn1c(=O)c(-c2ccc(-c3cccnc3C)cc2Cl)cc2cnc(Nc3ccc(CCN4CCCC4)cc3)nc21 | < 50 | < 50 | 50 to 500 | ≥ 5000
CCn1c(=O)c(-c2ccc(-c3cccnc3F)cc2Cl)cc2cnc(Nc3ccc(CCN4CCOCC4)cc3)nc21 | 50 to 500 | 50 to 500 | 50 to 500 | ≥ 5000
CCn1c(=O)c(-c2ccc(-c3noc(C)n3)cc2)cc2cnc(Nc3ccc(C4CCN(C)CC4)cc3)nc21 | 50 to 500 | 50 to 500 | 50 to 500 | ≥ 5000
